Experimental data taken from PubChem BioAssay AID248 (DTP/NCI, 2004).
Inconclusive results and toxic doses are left out. Cut-off read from the data, not from the text of the source: active = T/C of 150% or more; inactive = T/C below 125%.

Tested on: L1210 leukemia ip in BDF1 mice, survival T/C
Experiment: NCI In Vivo Anticancer Drug Screen. Data for tumor model L1210 Leukemia (intraperitoneal) in B6D2F1 (BDF1) mice
Conditions: endpoint: mean survival time, higher = longer survival
Outline: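 Value reflects the ratio of survival in compound-treated mice to survival in vehicle-treated controls, with both groups carrying the same transplanted tumor.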

[1] = dose: 100.0 mg/kg/injection, schedule: Q01DX009 (ip), vehicle: Klucel (hydroxypropylcellulose) (HPC)
[2] = dose: 100.0 mg/kg/injection, schedule: Q04DX003 (ip), vehicle: Klucel (hydroxypropylcellulose) (HPC)
[3] = dose: 200.0 mg/kg/injection, schedule: Q01DX009 (ip), vehicle: Klucel (hydroxypropylcellulose) (HPC)
[4] = dose: 200.0 mg/kg/injection, schedule: Q04DX003 (ip), vehicle: Klucel (hydroxypropylcellulose) (HPC)
[5] = dose: 400.0 mg/kg/injection, schedule: Q01DX009 (ip), vehicle: Klucel (hydroxypropylcellulose) (HPC)
[6] = dose: 400.0 mg/kg/injection, schedule: Q04DX003 (ip), vehicle: Klucel (hydroxypropylcellulose) (HPC)
[7] = dose: 100.0 mg/kg/injection, schedule: Q01DX009 (ip), vehicle: saline
[8] = dose: 100.0 mg/kg/injection, schedule: Q01DX001 (ip), vehicle: saline
[9] = dose: 200.0 mg/kg/injection, schedule: Q01DX001 (ip), vehicle: saline
[10] = dose: 400.0 mg/kg/injection, schedule: Q01DX001 (ip), vehicle: saline
[11] = dose: 100.0 mg/kg/injection, schedule: Q01DX009 (ip), vehicle: saline with Tween-80
[12] = dose: 100.0 mg/kg/injection, schedule: Q04DX003 (ip), vehicle: saline with Tween-80
[13] = dose: 200.0 mg/kg/injection, schedule: Q01DX009 (ip), vehicle: saline with Tween-80
[14] = dose: 200.0 mg/kg/injection, schedule: Q04DX003 (ip), vehicle: saline with Tween-80
[15] = dose: 400.0 mg/kg/injection, schedule: Q01DX009 (ip), vehicle: saline with Tween-80
[16] = dose: 400.0 mg/kg/injection, schedule: Q04DX003 (ip), vehicle: saline with Tween-80
[17] = dose: 100.0 mg/kg/injection, schedule: Q01DX001 (ip), vehicle: carboxymethylcellulose (CMC)
[18] = dose: 200.0 mg/kg/injection, schedule: Q01DX001 (ip), vehicle: carboxymethylcellulose (CMC)
[19] = dose: 400.0 mg/kg/injection, schedule: Q01DX001 (ip), vehicle: carboxymethylcellulose (CMC)
[20] = dose: 100.0 mg/kg/injection, schedule: Q04DX002 (ip), vehicle: Klucel (hydroxypropylcellulose) (HPC)
[21] = dose: 200.0 mg/kg/injection, schedule: Q04DX002 (ip), vehicle: Klucel (hydroxypropylcellulose) (HPC)
[22] = dose: 400.0 mg/kg/injection, schedule: Q04DX002 (ip), vehicle: Klucel (hydroxypropylcellulose) (HPC)

Measured: T/C

CC1(C)CC(=O)CC(C)(C)N1O
inactive: [1] 94 % of control | [2] 101 % of control | [3] 98 % of control | [4] 94 % of control | [5] 100 % of control | [6] 94 % of control

CC(C)=CC(=O)CC(O)(C(F)(F)F)C(F)(F)Cl (configuration not stated)
inactive: dose: 50.0 mg/kg/injection, schedule: Q01DX009 (ip), vehicle: saline 92 % of control | [7] 100 % of control

CCC1CC(O)c2c(O)c3c(c(O)c2C1O)C(=O)c1cccc(O)c1C3=O (configuration not stated) (tested in a mixture with another compound)
inactive: dose: 0.25 mg/kg/injection, schedule: Q01DX015 (ip), vehicle: carboxymethylcellulose (CMC) 101 % of control | dose: 0.5 mg/kg/injection, schedule: Q01DX015 (ip), vehicle: carboxymethylcellulose (CMC) 101 % of control | dose: 3.12 mg/kg/injection, schedule: Q01DX001 (ip), vehicle: carboxymethylcellulose (CMC) 93 % of control

C/C(=C(/SS/C(C(=O)O)=C(/C)c1cccc(O)c1)C(=O)O)c1cccc(O)c1
inactive: [8] 97 % of control | [9] 97 % of control | [10] 97 % of control

O=C1NC(c2c(Cl)cccc2Cl)Nc2ccccc21 (configuration not stated)
inactive: [2] 100 % of control | [4] 100 % of control | [6] 111 % of control

O=C(Cl)c1ccc(N2C(=O)c3ccccc3C2=O)cc1[N+](=O)[O-]
inactive: [11] 98 % of control | [12] 102 % of control | [13] 97 % of control | [14] 98 % of control | [15] 106 % of control | [16] 100 % of control

CC(=O)Nc1ncnc2c(C3OC(COC(C)=O)C(OC(C)=O)C3OC(C)=O)[nH]nc12 (configuration not stated)
inactive: [8] 100 % of control | [9] 97 % of control | [10] 100 % of control

O=C1OC(/C=C/c2ccccc2)=NC/1=C\c1ccc(Cl)cc1
inactive: [7] 105 % of control | dose: 200.0 mg/kg/injection, schedule: Q01DX009 (ip), vehicle: saline 105 % of control | dose: 400.0 mg/kg/injection, schedule: Q01DX009 (ip), vehicle: saline 94 % of control

N#Cc1ccc(/C=N\NC(=O)CCCC(=O)N/N=C/c2ccc(C#N)cc2)cc1
inactive: dose: 50.0 mg/kg/injection, schedule: Q01DX001 (ip), vehicle: other 91 % of control | dose: 100.0 mg/kg/injection, schedule: Q01DX001 (ip), vehicle: other 91 % of control | dose: 400.0 mg/kg/injection, schedule: Q01DX001 (ip), vehicle: other 91 % of control

CSc1ccc(N2C(=O)C3C(C2=O)C2(Cl)C(Cl)=C(Cl)C3(Cl)C2(Cl)Cl)cc1 (configuration not stated)
inactive: [1] 105 % of control | [2] 101 % of control | [3] 100 % of control | [4] 104 % of control | [5] 103 % of control | [6] 98 % of control

CN1CCCC1c1ccc(Br)cc1 (configuration not stated)
inactive: dose: 100.0 mg/kg/injection, schedule: Q01DX001 (ip), vehicle: acetone 95 % of control

COC1OCC2OC(C)(C)OC2C1OS(=O)(=O)c1ccc([N+](=O)[O-])cc1 (configuration not stated)
inactive: [17] 95 % of control | [18] 95 % of control | [19] 101 % of control

COc1ccc(/C=N/NC(=O)c2ccc(N=NN(C)C)cc2)c(OC)c1
inactive: dose: 75.0 mg/kg/injection, schedule: Q04DX003 (ip), vehicle: Klucel (hydroxypropylcellulose) (HPC) 104 % of control | dose: 150.0 mg/kg/injection, schedule: Q04DX003 (ip), vehicle: Klucel (hydroxypropylcellulose) (HPC) 97 % of control | dose: 300.0 mg/kg/injection, schedule: Q04DX003 (ip), vehicle: Klucel (hydroxypropylcellulose) (HPC) 99 % of control

C=C(C)COc1ccc(C(=O)c2ccccc2)cc1
inactive: [20] 103 % of control | [21] 100 % of control | [22] 94 % of control

COc1cccc(NC(=O)NCCCl)c1OC
inactive: [2] 107 % of control | [4] 96 % of control | [6] 102 % of control

COC(=O)c1cc2ccccc2c2ccccc12
inactive: [11] 94 % of control | [13] 91 % of control | [15] 87 % of control

COc1cc(Oc2c(OC)cc(/C(C)=N/O)cc2OC)cc(OC)c1OC
inactive: [12] 105 % of control | [14] 92 % of control | [16] 95 % of control

COc1cccc(NC(=S)NC(=O)c2ccccc2)c1
inactive: [20] 110 % of control | [21] 92 % of control | [22] 103 % of control

CC(=O)OCC(=O)[C@@]1(O)CC[C@H]2[C@@H]3CCC4=CC(=O)CC[C@]4(C)[C@H]3[C@@H](O)C[C@@]21C
inactive: dose: 1.13 mg/kg/injection, schedule: Q01DX Z (sc), vehicle: steriod suspending solution 102 % of control | dose: 2.25 mg/kg/injection, schedule: Q01DX Z (sc), vehicle: steriod suspending solution 107 % of control | dose: 4.5 mg/kg/injection, schedule: Q01DX Z (sc), vehicle: steriod suspending solution 102 % of control | dose: 9.0 mg/kg/injection, schedule: Q01DX Z (sc), vehicle: steriod suspending solution 101 % of control | dose: 25.0 mg/kg/injection, schedule: Q01DX Z (sc), vehicle: steriod suspending solution 87 % of control | dose: 50.0 mg/kg/injection, schedule: Q01DX Z (sc), vehicle: steriod suspending solution 102 % of control | [11] 105 % of control | dose: 100.0 mg/kg/injection, schedule: Q01DX Z (sc), vehicle: steriod suspending solution 106 % of control | [12] 104 % of control | [13] 104 % of control | dose: 200.0 mg/kg/injection, schedule: Q01DX009 (sc), vehicle: other 104 % of control | dose: 200.0 mg/kg/injection, schedule: Q01DX Z (sc), vehicle: steriod suspending solution 110 % of control | [14] 99 % of control | dose: 400.0 mg/kg/injection, schedule: Q01DX001 (sc), vehicle: steriod suspending solution 92 % of control | [15] 98 % of control | dose: 400.0 mg/kg/injection, schedule: Q01DX009 (sc), vehicle: other 102 % of control | [16] 100 % of control | dose: 600.0 mg/kg/injection, schedule: Q01DX009 (sc), vehicle: other 96 % of control | dose: 800.0 mg/kg/injection, schedule: Q01DX001 (sc), vehicle: steriod suspending solution 97 % of control | dose: 800.0 mg/kg/injection, schedule: Q01DX009 (sc), vehicle: other 101 % of control | dose: 1200.0 mg/kg/injection, schedule: Q01DX001 (sc), vehicle: steriod suspending solution 101 % of control | dose: 1600.0 mg/kg/injection, schedule: Q01DX001 (sc), vehicle: steriod suspending solution 100 % of control

CS(=O)(=O)CCC(C#N)(CCS(C)(=O)=O)c1ccccc1
inactive: [2] 110 % of control | [4] 100 % of control | [6] 102 % of control

CCOC(=O)C1=C(C)NC(C)=C(C(=O)OCC)C1C
inactive: [17] 111 % of control | [18] 116 % of control | [19] 106 % of control

O=Cc1ccc(-c2ccc([N+](=O)[O-])cc2)o1
inactive: dose: 100.0 mg/kg/injection, schedule: Q01DX001 (ip), vehicle: saline with Tween-80 92 % of control | dose: 200.0 mg/kg/injection, schedule: Q01DX001 (ip), vehicle: saline with Tween-80 94 % of control | dose: 400.0 mg/kg/injection, schedule: Q01DX001 (ip), vehicle: saline with Tween-80 103 % of control

CCC(Cl)COP(=O)(OCC(Cl)CC)C(C)P(=O)(OCC(Cl)CC)OCC(Cl)CC (configuration not stated)
inactive: dose: 62.5 mg/kg/injection, schedule: Q04DX003 (ip), vehicle: Klucel (hydroxypropylcellulose) (HPC) 96 % of control | dose: 125.0 mg/kg/injection, schedule: Q04DX003 (ip), vehicle: Klucel (hydroxypropylcellulose) (HPC) 97 % of control | dose: 250.0 mg/kg/injection, schedule: Q04DX003 (ip), vehicle: Klucel (hydroxypropylcellulose) (HPC) 96 % of control

[C-]#[N+]C1(C)CC1(c1ccccc1)c1ccccc1 (configuration not stated)
inactive: dose: 50.0 mg/kg/injection, schedule: Q04DX003 (ip), vehicle: saline 103 % of control | dose: 100.0 mg/kg/injection, schedule: Q04DX003 (ip), vehicle: saline 110 % of control | dose: 200.0 mg/kg/injection, schedule: Q04DX003 (ip), vehicle: saline 95 % of control
